In assay [1] the target is T1, human NK1 receptors (Homo sapiens, UniProt P25103).
T1 construct: expressed in transfected cells; host or cells: CHO cells (membrane preparation)
Briefly: Binding of the test substances to NK1 receptors in vitro ([3H]-Substance P displacement, CHO cell membranes). The note with it: [3H]-Substance P as ligand; membranes of CHO cells expressing the human NK1 receptor; Ki calculated from IC50; read-out: pKi (NK1) (converted). How it is done:
In The Netherlands, the affinity of the test substances to human NK1 receptors was measured in vitro.
The receptor binding studies were performed with [^3H]-Substance P as ligand. For the binding test, different samples of a membrane preparation of CHO cells (= egg cells of the Chinese hamster, Chinese hamster oocytes), which express the human NK1 receptor ("Accession Number" of the associated nucleic acid sequence = M74290; "Accession Number" of the associated protein sequence = P25103; cf. Takeda, Y.; Chou, K. B., Takeda, J.; Sachais, B.S. and Krause, J. E; Biochemical and Biophysical Research Communications, 179(3) (1991) 1232 - 1240), were incubated with a solution of the marked ligand, with the incubation mixtures containing no test substance or additions of different concentrations of test substance. Then, separation of bound and free ligands was performed in each of the samples with the aid of glass-fibre filtration. The fraction remaining in the filter was washed several times with buffer solution and then the radioactivity of the fraction remaining in the filter was measured using a beta scintillation counter.
For the compounds of Examples 1 to 14, that concentration which effects half maximum displacement of the bound ligand was determined as IC50 of the respective test substance. From this, the corresponding inhibition constant (Ki value) of the test substance was calculated, and was stated as the negative common logarithm of the Ki value (= pKi value). The pKi value is a measurement of the affinity of the test substances to human NK1 receptors.

For assay [2], the target named is T2, human NK2 receptors (Homo sapiens, UniProt P21452).
T2 construct: expressed in transfected cells; host or cells: CHO cells (membrane preparation)
T2 sequence (P21452 1-398): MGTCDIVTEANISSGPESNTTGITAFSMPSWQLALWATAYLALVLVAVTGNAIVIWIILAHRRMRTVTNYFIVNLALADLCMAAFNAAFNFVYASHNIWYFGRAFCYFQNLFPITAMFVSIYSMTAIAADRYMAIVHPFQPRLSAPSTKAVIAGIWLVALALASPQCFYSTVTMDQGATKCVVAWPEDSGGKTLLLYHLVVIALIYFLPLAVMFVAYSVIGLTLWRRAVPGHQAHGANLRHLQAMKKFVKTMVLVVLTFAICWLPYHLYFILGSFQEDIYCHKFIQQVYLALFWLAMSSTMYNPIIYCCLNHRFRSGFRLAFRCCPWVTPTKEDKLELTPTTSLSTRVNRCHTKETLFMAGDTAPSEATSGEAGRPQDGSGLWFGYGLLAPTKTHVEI
Briefly: Binding of the test substances to NK2 receptors in vitro ([3H]-SR 48968 displacement, CHO cell membranes). Conditions: [3H]-SR 48968 as ligand; membranes of CHO cells expressing the human NK2 receptor; 90 min incubation; Ki calculated from IC50; read-out: pKi (NK2) (converted). Here is the method: The affinity of the test substances to human NK2 receptors was measured in vitro. The ability of the test substances to displace the selective NK2 receptor antagonist SR 48968 (= saredutant) used as reference ligand from its corresponding bond was determined.
The receptor binding studies were carried out with radioactively marked [^3H]-SR 48968 (from Amersham) as ligand. For the binding test, different samples of a membrane preparation of CHO cells (= egg cells of the Chinese hamster, Chinese hamster oocytes), which express the human NK2 receptor (for preparation, see N.P. Gerard et al., Journal of Biological Chemistry 265/33 (1990) 20455-20462), were incubated for 90 minutes (= min.) with a solution of the marked ligand, with the incubation mixtures containing no test substance or additions of different concentrations of test substance. Then in each case the membrane-bound ligands in the samples were separated from free ligands by filtration. The fraction remaining in the filter was washed several times with buffer solution, before its radioactivity was measured using a liquid scintillation counter. That concentration which effects half-maximum displacement of the bound reference ligand was determined as IC50 of the respective test substance. The inhibition constant (Ki value) of the test substance was calculated from the respective IC50 value, and was stated as the negative logarithmised value thereof (pKi).
If several measurements were performed, the average thereof was listed each time. The pKi value is a measurement of the affinity of the test substances to human NK2 receptors.

In assay [3] the target is T3, cloned human NK1 receptors (Homo sapiens, UniProt P25103).
T3 construct: expressed in transfected cells
T3 sequence (P25103 whole entry): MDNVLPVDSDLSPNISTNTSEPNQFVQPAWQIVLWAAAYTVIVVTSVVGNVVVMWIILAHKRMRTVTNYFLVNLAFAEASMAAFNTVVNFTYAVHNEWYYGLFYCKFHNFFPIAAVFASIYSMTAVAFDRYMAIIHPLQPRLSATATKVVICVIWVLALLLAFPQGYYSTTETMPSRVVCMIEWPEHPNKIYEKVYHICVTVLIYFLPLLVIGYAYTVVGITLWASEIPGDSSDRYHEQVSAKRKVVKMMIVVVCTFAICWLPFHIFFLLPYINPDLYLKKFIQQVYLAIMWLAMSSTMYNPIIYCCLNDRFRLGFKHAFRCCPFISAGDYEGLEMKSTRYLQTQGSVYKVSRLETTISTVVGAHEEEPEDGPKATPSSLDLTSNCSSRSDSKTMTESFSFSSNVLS
Kind of assay: Ca2+ measurements using FLIPR for NK1 activity in CHO cells. Type of assay: cell-based. Conditions: substance P 10^-8 M as agonist; compound applied 7 min before; pA2 calculated from IC50. The source says: (§1) The NK receptor is coupled to Gq.
(§2) All steps were done under sterile conditions. […] The results are summarized in table 5: Table 5: pA2 data for NK1 and NK2: […]

The target in assay [4] is T4, cloned human NK2 receptors (Homo sapiens, UniProt P21452).
T4 construct: expressed in transfected cells
T4 sequence (P21452 1-398): T2 sequence (P21452 1-398)
Briefly: Ca2+ measurements using FLIPR for NK2 activity in CHO cells. The format is cell-based. Conditions: NKA 10^-7 M as agonist; compound applied 7 min before; pA2 calculated from IC50.
From the text: as §1, §2

T1 sequence (P25103 whole entry): as above

Turning to `CN(C[C@@H](CCN1CCN([C@@H](c2ccco2)[C@H](O)[C@H](O)[C@H](O)CO)CC1)c1ccc(Cl)c(Cl)c1)C(=O)c1cc(C#N)cc2ccccc12` [Compound 3, 3-cyano-N-[(2S)-2-(3,4-dichlorophenyl)-4-{4-[(1R,2S,3S,4R)-1-(2-furyl)-2,3,4,5-tetrahydroxypentyl]piperazin-1-yl}butyl]-N-methyl-1-naphthamide], the Ki was 1.58 nM in assay [1] and 63.1 nM in assay [2].

Take `CN(C[C@@H](CCN1CCN([C@@H](c2ccsc2)[C@H](O)[C@H](O)[C@H](O)CO)CC1)c1ccc(Cl)c(Cl)c1)C(=O)c1cc(C#N)cc2ccccc12` [Compound 4, 3-cyano-N-[(2S)-2-(3,4-dichlorophenyl)-4-{4-[(1S,2S,3S,4R)-2,3,4,5-tetrahydroxy-1-(3-thienyl)pentyl]piperazin-1-yl}butyl]-N-methyl-1-naphthamide]: the Ki was 2.51 nM in assay [1] and 126 nM in assay [2].

As to `CN(C[C@@H](CCN1CCN([C@@H](c2ccoc2)[C@H](O)CO)CC1)c1ccc(Cl)c(Cl)c1)C(=O)c1cc(C#N)cc2ccccc12` [Compound 12, 3-cyano-N-[(2S)-2-(3,4-dichlorophenyl)-4-{4-[(1S,2S)-1-(3-furyl)-2,3-dihydroxypropyl]piperazin-1-yl}butyl]-N-methyl-1-naphthamide], the Ki was 10 nM in assay [1] and 100 nM in assay [2].

On to `CN(C[C@@H](CCN1CCN(C(c2ccco2)C(O)CO)CC1)c1ccc(Cl)c(Cl)c1)C(=O)c1cc(C#N)cc2ccccc12` (stereo partly drawn) [Compound 14, 3-cyano-N-[(2S)-2-(3,4-dichlorophenyl)-4-{4-[1-(2-furyl)-2,3-dihydroxypropyl]piperazin-1-yl}butyl]-N-methyl-1-naphthamide], for which the Kb in assay [3] was 0.398 nM; in assay [4], 3.16 nM. Besides, the Ki in assay [1] was 5.01 nM; in assay [2] it was 12.6 nM.

Take `COc1ccc([C@@H]([C@H](O)CO)N2CCN(CC[C@H](CN(C)C(=O)c3cc(C#N)cc4ccccc34)c3ccc(Cl)c(Cl)c3)CC2)cc1` [Compound 16, 3-cyano-N-[(2)-2-(3,4-dichlorophenyl)-4-{4-[(1S,2S)-2,3-dihydroxy-1-(4-methoxyohenyl)propyl]piperazin-1-yl}butyl]-N-methyl-1-naphthamide]: the “pA2 (NK1)” value in assay [3] is on record as 9,3. Also, the “pA2 (NK2)” value in assay [4] is recorded as 9,1.

Regarding `CN(C[C@@H](CCN1CCN([C@@H](c2cc3ccccc3o2)[C@H](O)CO)CC1)c1ccc(Cl)c(Cl)c1)C(=O)c1cc(C#N)cc2ccccc12` [Compound 17, N-[(2S)-4-{4-[(1R,2S)-1-(1-benzofuran-2-yl)-2,3-dihydroxypropyl]piperazin-1-yl}-2-(3,4-dichlorophenyl)butyl]-3-cyano-N-methyl-1-naphthamide], the Kb in assay [3] and in assay [4] was 20 nM in each case. The Ki in assay [1] is 31.6 nM; in assay [2], 3160 nM.

As to `CN(C[C@@H](CCN1CCN([C@@H](c2ccc(Cl)s2)[C@H](O)CO)CC1)c1ccc(Cl)c(Cl)c1)C(=O)c1cc(C#N)cc2ccccc12` [Compound 18, N-[(2S)-4-{4-[(1R,2S)-1-(5-chloro-2-thienyl)-2,3-dihydroxypropyl]piperazin-1-yl}-2-(3,4-dichlorophenyl)butyl]-3-cyano-N-methyl-1-naphthamide], the Kb is 6.31 nM in assay [3] and 2.51 nM in assay [4]. Also, the values for the Ki in assay [1] and in assay [2] were 3.16 nM and 158 nM, respectively.

As for `CN(C[C@@H](CCN1CCN([C@@H](c2ccc3c(c2)OCO3)[C@H](O)CO)CC1)c1ccc(Cl)c(Cl)c1)C(=O)c1cc(C#N)cc2ccccc12` [Compound 21, N-[(2S)-4-{4-[(1S,2S)-1-(1,3-benzodioxol-5-yl)-2,3-dihydroxypropyl]piperazin-1-yl}-2-(3,4-dichlorophenyl)butyl]-3-cyano-N-methyl-1-naphthamide], the Kb was 0.794 nM in assay [3] and 0.316 nM in assay [4]. Besides, the Ki was 2 nM in assay [1] and 398 nM in assay [2].

With `CN(C[C@@H](CCN1CCN([C@@H](c2cc3ccccc3s2)[C@H](O)CO)CC1)c1ccc(Cl)c(Cl)c1)C(=O)c1cc(C#N)cc2ccccc12` [Compound 22, N-[(2S)-4-{4-[(1R,2S)-1-(1-benzothien-2-yl)-2,3-dihydroxypropyl]piperazin-1-yl}-2-(3,4-dichlorophenyl)butyl]-3-cyano-N-methyl-1-naphthamide], the Kb in assay [3] is 7.94 nM; in assay [4], 3.16 nM. Also, the Ki in assay [1] is 3.98 nM; in assay [2], 1000 nM.

Take `CN(CC(CCN1CCN(C(Cc2ccccc2)C(O)CO)CC1)c1ccc(Cl)c(Cl)c1)C(=O)c1cc(C#N)cc2ccccc12` (stereo not drawn) [Compound 24]: in assay [3], the “pA2 (NK1)” value was 8,1. Besides, the “pA2 (NK2)” value in assay [4] was 7,8.

Turning to `CN(C[C@@H](CCN1CCN(C(CO)c2ccco2)CC1)c1ccc(Cl)c(Cl)c1)C(=O)c1cc(C#N)cc2ccccc12` (stereo partly drawn) [Compound 25, 3-cyano-N-[(2S)-2-(3,4-dichlorophenyl)-4-{4-[1-(2-furyl)-2-hydroxyethyl]piperazin-1-yl}butyl]-N-methyl-1-naphthamide], the values for the Kb in assay [3] and in assay [4] were 3.16 nM and 1 nM, respectively. Moreover, the Ki was 7.94 nM in assay [1] and 39.8 nM in assay [2].

Regarding `CC(=O)OCC(O)C(Cc1ccccc1)N1CCN(CCC(CN(C)C(=O)c2cc(C#N)cc3ccccc23)c2ccc(Cl)c(Cl)c2)CC1` (stereo not drawn) [Compound 26], the “pA2 (NK1)” value in assay [3] was 8,0. For the same molecule, the “pA2 (NK2)” value in assay [4] is on record as 7,4.

On to `CC(=O)OC[C@@H](OC(C)=O)[C@H](c1ccco1)N1CCN(CC[C@H](CN(C)C(=O)c2cc(C#N)cc3ccccc23)c2ccc(Cl)c(Cl)c2)CC1` [Compound 27, (2S,3R)-2-(acetyloxy)-3-{4-[(3S)-4-[3-cyano-1-naphthoyl)(methyl)amino]-3-(3,4-dichlorophenyl)butyl]piperazin-1-yl}-3-(2-furyl)propyl acetate], for which the “pA2 (NK1)” value in assay [3] is listed as 9,2. Besides, the “pA2 (NK2)” value in assay [4] is recorded as 8,1.

Turning to `CN(C[C@@H](CCN1CCN(C(CO)c2ccco2)CC1)c1ccc(Cl)c(Cl)c1)C(=O)c1cc(C#N)cc2ccccc12` (stereo partly drawn) [Compound 28, 3-cyano-N-[(2S)-2-(3,4-dichlorophenyl)-4-{4-[1-(2-furyl)-2-hydroxyethyl]piperazin-1-yl}butyl]-N-methyl-1-naphthamide], the Kb in assay [3] was 2 nM; in assay [4] it was 25.1 nM. Besides, the figures for the Ki in assay [1] and in assay [2] were 12.6 nM and 50.1 nM, respectively.
